Results reported in US11173166B2, “Composition and uses thereof” (BH Biotech Pty Ltd, priority 2017, dated 2021).

Experiments:
NLRP3 inflammasome = NLRP3 inflammasome (Homo sapiens, UniProt Q96P20); assay: THP-1 NLRP3 inflammasome assay (LPS priming plus ATP stimulation, IL-1β ELISA), with Chou-Talalay CI analysis; settings: for inhibition of NLRP3 inflammasome activation (IL-1β production), in words: single agent, THP-1 primed with LPS, stimulated with ATP
Method: Absorbance data obtained from the ELISA assays was transformed into relative inhibition using Microsoft Excel. Dose-response curves and statistical analyses were generated using GraphPad Prism software. To generate dose-response curves, first the dose was transformed into Log10, then curves were generated using the non-linear regression option log[inhibitor] vs response-variable slope (four parameter). Statistical comparisons between treatment and control groups were performed using One Way ANOVA with GraphPad Prism statistical software.
The latest version of CompuSyn software was used to analyse data and generate CI and graphical representations of drug-drug interactions.
Monocytes were first primed for three hours with 100 nM LPS, then stimulated with ATP.

[1] = Solubility behaviour in the cell-based assay system / aqueous solution
From the text: The interaction between ashwagandha and turmeric plant extracts was studied. […] To overcome this experimental limitation low doses at approximately the Fa 0.2 range were focused on, and the mean relative inhibition values of the single extract versus the ashwagandha plus turmeric plant extract combination were compared.
The combination of turmeric and pepper (Piper nigrum) plant extracts was investigated.

Chain of NLRP3 inflammasome (Q96P20 whole entry): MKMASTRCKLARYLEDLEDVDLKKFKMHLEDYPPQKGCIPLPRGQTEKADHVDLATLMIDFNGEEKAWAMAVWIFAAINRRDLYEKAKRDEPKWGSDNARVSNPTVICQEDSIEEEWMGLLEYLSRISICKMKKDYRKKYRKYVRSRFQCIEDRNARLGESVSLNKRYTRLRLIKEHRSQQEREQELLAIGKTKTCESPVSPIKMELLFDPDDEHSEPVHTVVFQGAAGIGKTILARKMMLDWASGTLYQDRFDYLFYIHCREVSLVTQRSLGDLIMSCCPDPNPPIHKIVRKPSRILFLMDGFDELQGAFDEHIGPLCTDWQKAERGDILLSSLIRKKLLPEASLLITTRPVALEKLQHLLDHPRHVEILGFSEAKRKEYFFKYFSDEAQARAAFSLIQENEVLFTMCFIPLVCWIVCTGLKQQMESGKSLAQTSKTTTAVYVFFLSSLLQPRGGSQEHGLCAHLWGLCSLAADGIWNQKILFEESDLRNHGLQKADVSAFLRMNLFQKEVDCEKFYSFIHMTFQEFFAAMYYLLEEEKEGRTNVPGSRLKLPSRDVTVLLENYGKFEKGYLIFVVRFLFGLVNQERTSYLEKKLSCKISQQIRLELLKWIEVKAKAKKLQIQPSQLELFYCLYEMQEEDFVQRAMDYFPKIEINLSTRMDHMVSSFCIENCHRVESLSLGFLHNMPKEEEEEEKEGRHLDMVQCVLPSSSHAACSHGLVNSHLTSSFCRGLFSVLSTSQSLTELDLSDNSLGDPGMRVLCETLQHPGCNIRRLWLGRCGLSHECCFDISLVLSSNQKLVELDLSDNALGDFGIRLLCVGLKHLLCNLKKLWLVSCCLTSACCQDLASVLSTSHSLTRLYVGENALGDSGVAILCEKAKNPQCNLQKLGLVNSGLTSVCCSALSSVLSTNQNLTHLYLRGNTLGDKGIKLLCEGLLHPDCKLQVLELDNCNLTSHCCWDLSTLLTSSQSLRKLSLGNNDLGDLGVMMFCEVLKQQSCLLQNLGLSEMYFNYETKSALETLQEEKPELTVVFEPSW

Compound | inflammasome inhibition, highest observed (NLRP3 inflammasome; limited because compound came out of solution at higher doses) | solubility behaviour [1] | interaction in drug combination experiments (polynonogram) (NLRP3 inflammasome; combined with withaferin A, curcumin and piperine) | inhibition of NLRP3 inflammasome activation (IL-1β production), in words (NLRP3 inflammasome) | efficacy relative to vehicle control (ANOVA) (NLRP3 inflammasome; low dose: below Fa 0.4 for pure compounds, approximately Fa 0.2 for extracts)
O=C(/C=C/C=C/c1ccc2c(c1)OCO2)N1CCCCC1 [piperine] | ≤ 35% | came out of solution at the higher doses | – | – | –
COc1cc(C2Oc3cc([C@H]4Oc5cc(O)cc(O)c5C(=O)[C@@H]4O)ccc3OC2CO)ccc1O (stereo partly drawn) [silybin] | – | – | striking antagonism | effectively inhibiting inflammation | –
CC1=C(CO)C(=O)O[C@@H]([C@@H](C)[C@H]2CC[C@H]3[C@@H]4C[C@H]5O[C@]56[C@@H](O)C=CC(=O)[C@]6(C)[C@H]4CC[C@]23C)C1 [withaferin A] | – | – | – | inhibit NLRP3 inflammasome activity | efficacious relative to vehicle control
